Data taken from patent US20070104644A1, “Inhibitor imaging agents” (priority 2003, published 2007).
pKi: −log10 of the molar value. Numbered stars: 1 amine (or outer) side, 2 acyl side, 3 side chain; on linkers, the order of the positions; unused ones are H or OH. Square brackets hold non-standard residues; d marks the D form. Peptide text beside a SMILES is read from it. * marks the point of attachment. Tyr(3-I) = N[C@@H](Cc1ccc(O)c(I)c1)C(=O)O; X2 = O=C(NO)C1(N(CCC(=O)[*:2])[*:1])CCCC1; X1 = O=S(=O)(c1ccc(Oc2ccc(F)cc2)cc1)*

Legend:
Assay type in all cases: biochemical
[1] = molecular target: T1, MMP-1 (Homo sapiens, UniProt P03956); experiment: MMP-1 colorimetric assay kit (Biomol AK-404)
T1 sequence (P03956 100-469): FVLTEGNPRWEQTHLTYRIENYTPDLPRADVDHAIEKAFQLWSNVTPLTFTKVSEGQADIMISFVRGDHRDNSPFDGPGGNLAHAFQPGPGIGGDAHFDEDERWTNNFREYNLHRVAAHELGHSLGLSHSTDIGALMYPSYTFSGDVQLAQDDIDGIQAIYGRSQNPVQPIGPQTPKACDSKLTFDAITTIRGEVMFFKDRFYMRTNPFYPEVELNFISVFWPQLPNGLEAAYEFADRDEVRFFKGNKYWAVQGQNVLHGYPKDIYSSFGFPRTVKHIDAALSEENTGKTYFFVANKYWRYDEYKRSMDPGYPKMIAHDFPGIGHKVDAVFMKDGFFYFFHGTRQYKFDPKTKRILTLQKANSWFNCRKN
Description: (§1) Compounds were screened using the following commercially available Biomol assay kits: • MMP-1 colorimetric assay kit—Catalogue number AK-404, • MMP-2 colorimetric assay kit—Catalogue number AK-408, • MMP-8 calorimetric assay kit—Catalogue number AK-414, • MMP-9 calorimetric assay kit—Catalogue number AK-410, • MMP-12 colorimetric assay kit—Catalogue number AK-402, Which are available from Affiniti Research Products Ltd. (Palatine House, Matford Court, Exeter, EX2 8NL, UK).
(§2) Inhibitors were provided in powdered form, and stored at 4° C. For each inhibitor a 1 mM stock solution in DMSO was prepared, dispensed into 20 μl aliquots and these aliquots stored at −20° C. The stock solution was diluted to give 8 inhibitor concentrations (recommended: 50 μM, 5 μM, 500 nM, 50 nM, 5 nM, 500 pM, 50 pM and 5 pM). Dilutions were made in the kit assay buffer. A five-fold dilution of the inhibitor stocks is made on addition to the assay wells, therefore final concentration range was from 10 μM to 1 pM.
(§3) Details are provided with the commercial kit, but can be summarised as follows: • Prepare test compound dilutions as above, • Add assay buffer to plate, • Add test compounds to plate • Prepare standard kit inhibitor NNGH (see kit for dilution factor) • Add NNGH to control inhibitor wells • Prepare MMP enzyme (see kit for dilution factor) • Add MMP to plate • Incubate plate at 37° C. for ˜15 min • Prepare thiopeptolide substrate (see kit for dilution factor) • Add substrate to plate • Count every 2 min for 1 hr, 37° C., 414 nm on a Labsystems iEMS plate reader (for MMP-1 count every 30 seconds for 20 minutes).

[2] = molecular target: MMP-8 (Homo sapiens, UniProt P22894); experiment: MMP-8 colorimetric assay kit (Biomol AK-414)
Sequence of MMP-8 (P22894 101-467): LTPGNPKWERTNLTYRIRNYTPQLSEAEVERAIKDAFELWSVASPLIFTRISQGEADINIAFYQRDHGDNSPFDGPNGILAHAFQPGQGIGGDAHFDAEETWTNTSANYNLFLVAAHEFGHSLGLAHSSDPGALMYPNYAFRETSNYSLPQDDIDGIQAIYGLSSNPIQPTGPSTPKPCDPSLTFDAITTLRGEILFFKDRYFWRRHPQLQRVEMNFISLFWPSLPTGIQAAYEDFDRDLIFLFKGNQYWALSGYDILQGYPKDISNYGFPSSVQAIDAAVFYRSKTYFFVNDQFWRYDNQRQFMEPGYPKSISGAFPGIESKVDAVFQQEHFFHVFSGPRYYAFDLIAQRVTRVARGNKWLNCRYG
Description: as §1, §2, §3

[3] = molecular target: MMP-9 (Homo sapiens, UniProt P14780); experiment: MMP-9 colorimetric assay kit (Biomol AK-410)
Sequence of MMP-9 (P14780 94-707): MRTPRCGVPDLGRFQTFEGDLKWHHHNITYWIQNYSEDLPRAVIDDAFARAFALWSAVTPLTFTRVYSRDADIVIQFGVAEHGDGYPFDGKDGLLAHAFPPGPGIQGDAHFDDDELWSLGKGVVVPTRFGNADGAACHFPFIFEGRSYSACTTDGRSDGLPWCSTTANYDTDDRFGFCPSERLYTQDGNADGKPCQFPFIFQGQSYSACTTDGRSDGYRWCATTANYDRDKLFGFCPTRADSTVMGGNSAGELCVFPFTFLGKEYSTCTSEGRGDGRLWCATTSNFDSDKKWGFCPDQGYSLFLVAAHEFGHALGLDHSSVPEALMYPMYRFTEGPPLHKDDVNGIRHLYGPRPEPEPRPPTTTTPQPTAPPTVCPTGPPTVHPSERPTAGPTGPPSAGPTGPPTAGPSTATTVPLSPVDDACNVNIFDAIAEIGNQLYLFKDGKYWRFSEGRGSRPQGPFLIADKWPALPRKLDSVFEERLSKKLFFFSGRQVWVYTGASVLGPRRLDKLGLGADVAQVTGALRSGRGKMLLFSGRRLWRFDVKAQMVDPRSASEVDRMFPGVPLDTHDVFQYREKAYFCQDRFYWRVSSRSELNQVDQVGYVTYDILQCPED
Description: as §1, §2, §3

[4] = molecular target: T2, MMP-2 (Homo sapiens, UniProt P08253); experiment: MMP-2 colorimetric assay kit (Biomol AK-408)
T2 sequence (P08253 110-660): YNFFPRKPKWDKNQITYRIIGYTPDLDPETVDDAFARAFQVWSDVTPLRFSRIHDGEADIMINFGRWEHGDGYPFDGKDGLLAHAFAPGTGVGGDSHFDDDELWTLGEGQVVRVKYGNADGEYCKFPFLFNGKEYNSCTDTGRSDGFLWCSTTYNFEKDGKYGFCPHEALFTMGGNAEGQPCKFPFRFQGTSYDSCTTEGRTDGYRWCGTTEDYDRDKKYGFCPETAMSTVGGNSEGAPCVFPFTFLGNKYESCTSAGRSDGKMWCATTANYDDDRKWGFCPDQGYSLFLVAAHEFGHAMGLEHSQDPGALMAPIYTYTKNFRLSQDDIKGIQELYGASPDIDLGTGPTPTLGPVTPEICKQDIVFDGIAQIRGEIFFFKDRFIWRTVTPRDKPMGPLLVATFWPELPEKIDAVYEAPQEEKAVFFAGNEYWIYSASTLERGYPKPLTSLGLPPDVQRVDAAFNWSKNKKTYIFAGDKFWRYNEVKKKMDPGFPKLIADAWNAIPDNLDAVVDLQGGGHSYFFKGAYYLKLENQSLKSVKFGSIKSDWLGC
Description: as §1, §2, §3

[5] = molecular target: MMP-12 (Homo sapiens, UniProt P39900); experiment: MMP-12 colorimetric assay kit (Biomol AK-402)
Sequence of MMP-12 (P39900 106-470): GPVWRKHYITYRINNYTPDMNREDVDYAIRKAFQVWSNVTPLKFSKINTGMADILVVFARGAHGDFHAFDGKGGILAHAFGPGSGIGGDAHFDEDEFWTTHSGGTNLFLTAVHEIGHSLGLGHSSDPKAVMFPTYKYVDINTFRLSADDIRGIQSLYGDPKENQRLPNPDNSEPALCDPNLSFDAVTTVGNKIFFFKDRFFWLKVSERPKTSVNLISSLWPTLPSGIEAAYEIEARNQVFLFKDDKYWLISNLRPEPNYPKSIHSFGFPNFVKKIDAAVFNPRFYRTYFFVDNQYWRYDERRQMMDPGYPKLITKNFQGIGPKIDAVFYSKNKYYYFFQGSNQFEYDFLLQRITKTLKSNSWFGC
Description: as §1, §2, §3

| pKi [1] | pKi [2] | pKi [3] | pKi [4] | pKi [5] | SMILES |
| --- | --- | --- | --- | --- | --- |
| 6.71 | 9.06 | 9.09 | 8.94 | – | NC(=O)[C@H](Cc1ccc(O)c(I)c1)NC(=O)[C@H](CCC(=O)O)NC(=O)[C@H](CCC(=O)O)NC(=O)[C@H](CCC(=O)O)NC(=O)[C@H](CCC(=O)O)NC(=O)[C@H](CCC(=O)O)NC(=O)CCN(C1(C(=O)NO)CCCC1)S(=O)(=O)c1ccc(Oc2ccc(F)cc2)cc1 [Compound 21] (X1-[X2]EEEEE[Tyr(3-I)]-NH2) |
| – | – | 9.00 | 8.90 | 10.30 | NC(=O)[C@H](Cc1ccc(O)c(I)c1)NC(=O)COCC(=O)NCCOCCOCCOCCNC(=O)[C@H](CCC(=O)O)NC(=O)[C@H](CCC(=O)O)NC(=O)[C@H](CCC(=O)O)NC(=O)[C@H](CCC(=O)O)NC(=O)[C@H](CCC(=O)O)NC(=O)CCN(C1(C(=O)NO)CCCC1)S(=O)(=O)c1ccc(Oc2ccc(F)cc2)cc1 [Compound 38] |
| 6.48 | 8.66 | 9.43 | 9.21 | 9.05 | NC(=O)[C@H](Cc1ccc(O)c(I)c1)NC(=O)CCOCCOCCOCCOCCOCCOCCOCCOCCOCCOCCOCCNC(=O)CCOCCOCCOCCOCCOCCOCCOCCOCCOCCOCCOCCNC(=O)CCN(C1(C(=O)NO)CCCC1)S(=O)(=O)c1ccc(Oc2ccc(F)cc2)cc1 [Compound 32] |
| – | – | 10.12 | 9.60 | – | NC(=O)[C@H](Cc1ccc(O)c(I)c1)NC(=O)CCOCCOCCOCCOCCOCCOCCOCCOCCOCCOCCOCCNC(=O)CCN(C1(C(=O)NO)CCCC1)S(=O)(=O)c1ccc(Oc2ccc(F)cc2)cc1 [Compound 44] |

| SMILES | pKi [1] | pKi [2] | pKi [3] | pKi [4] | pKi [5] |
| --- | --- | --- | --- | --- | --- |
| NC(=O)[C@H](CCCCNC(=O)CON=Cc1ccc(F)cc1)NC(=O)CCOCCOCCOCCOCCOCCOCCOCCOCCOCCOCCOCCNC(=O)CCOCCOCCOCCOCCOCCOCCOCCOCCOCCOCCOCCNC(=O)CCN(C1(C(=O)NO)CCCC1)S(=O)(=O)c1ccc(Oc2ccc(F)cc2)cc1 [Compound 48] | 7.48 | 9.30 | 9.70 | – | – |
